Reference: patent US20230212517A1, “METHODS FOR GENERATING HEMATOPOIETIC STEM CELLS” (The Brigham and Women's Hospital, Inc., priority 2018, published 2023)

System: E11.5 AGM-derived HSCs
Experiment: Serial transplantation of treated E11.5 AGM-derived HSCs into lethally irradiated mice
Assay type: in vivo, mouse
Details: for multi-lineage reconstitution (myeloid, T-cells, B-cells) in primary transplant / peripheral blood chimerism / engraftment in primary transplant: primary recipients; for multi-lineage reconstitution (myeloid, T-cells, B-cells) in primary transplant: week 16; for peripheral blood chimerism / engraftment in primary transplant: weeks 8-16, three embryo equivalent treated AGM donor cells
Experimental: Pulsating blood vessels like conditions were stimulated in vitro using FLEXCELL FX-4000 cell stretching bioreactor machine. To analyze roles of pharmacological targets in regulating the endothelial-to-HSC transition, mouse embryo-derived AGM or whole mouse embryo were exposed ex vivo with biomechanical stretching, chemicals, or drugs. Next, hematopoietic colony formation assays were performed by incubating mouse AGM-derived cells in StemCell M3434 media for seven days. Serial transplantation of AGM-derived HSCs in lethally irradiated SJL mice were performed. The stem cell frequency upon biomechanical stretching was analyzed using a limiting dilution assay. To characterize properties of AGM-HSC-derived blood cells in primary transplants, percentage chimerism and reconstitution was measured using FACS, globin transcripts were analyzed using quantitative reverse transcriptase-PCR, myeloperoxidase amount was measured using PICOKINE ELISA kit, TCR-β rearrangement was analyzed using PCR for TCR-β locus, pre-immune IG detection was analyzed using Thermo-Fisher Mouse Ig Isotyping kit, and delayed-type hypersensitivity was analyzed by injecting sheep RBC (Rockland Immunochemicals) in the footpad of pre-sensitized mice.
For primary transplantation, three-embryo equivalents of untreated or treated (cyclic strain or 25 μM Yoda1) AGMs plus splenic helper cells (˜500,000 per mouse) were injected into lethally irradiated (split dose […]) Cd45.1 (SJL) mice by retro-orbital injection. For secondary and tertiary transplants, the bone marrow was isolated (legs, arm, pelvic bone, spine, sternum) from the transplanted mice. The bone marrow was loaded on a FICOLL gradient (HISTOPAQUE-1083 solution, Sigma-Aldrich), and the cells from the buffy coat incubated with biotin-conjugated lineage antibodies and streptavidin microbeads (Miltenyi Biotec). Next, the lineage negative (Lin) cells were separated with MACS LS Columns (Miltenyi Biotec), and the donor Cd45.2 Lin^−Sca1^+-Kit^+ (LSK) cells sorted with a MoFlo Beckman Coulter sorter. Subsequently, the sorted Cd45.2 LSK cells were mixed with Cd45.1 splenic helper cells (˜500,000 per mouse) and transplanted into Cd45.1 irradiated (split dose […]) SJL mice by retro-orbital injection.
AGM cells from explants and ex vivo were stained with Sca1-Pacific-Blue (E13-161.7, Biolegend) and Flk1-APC-Cy7 (Avas 12α1, BD). Blood from transplanted mice was stained with the following antibody cocktail: Cd45.2-Pacific-Blue (104, Biolegend), Cd45.1-FITC (A20, Biolegend), Cd3-PE (145-2C11, Biolegend), Cd8-PE (53-6.7, Biolegend), Mac1-APC (M1/70, Biolegend), Gr1-APC (108412, Biolegend), Cd19-APC-CY7 (6D5, Biolegend), B220-APC-CY7 (RA3-6B2, Biolegend).
Cells from the bone marrow, spleen, thymus, and lymph node from mice transplanted with E11.5 AGM cells were stained with the following antibody panels: Bone marrow LT-HSC: Cd45.2-FITC (104, Biolegend), Ter119-Biotin (TER-119 BD), Gr1-Biotin (RB6-8C5, BD), Cd5-Biotin (53-7.3, BD), Cd8a-Biotin (53-6.7, BD), B220-Biotin (RA3-6B2, BD), Streptavidin-Pacific Blue (eBioscience), Sca1-PE-CY7 (D7, eBioscience), cKit-APC (2B8, eBioscience), Cd48-APC-CY7 (HM48-1, BD), Cd150-PE-CY5 (TC15-12F12.2, Biolegend). Erythroid development RI-RV in bone marrow: Cd45.2-Pacific-Blue (104, Biolegend), Cd45.1-FITC (A20, Biolegend), Ter119-APC (TER-119, Biolegend), Cd71-PE (R17217, eBioscience). Bone marrow granulocytes: Cd45.2-Pacific-Blue (104, Biolegend), Cd45.1-FITC (A20, Biolegend), Gr1-PE, (RB6-8C5, BD); Mac1-APC (M1/70, Biolegend). Spleen, thymus and lymph nodes T Cells: Cd45.2-Pacific-Blue (104, Biolegend), Cd45.1-FITC (A20, Biolegend), Cd8-PE (53-6.7, Biolegend), Cd4-APC (RM4-5, eBioscience). Spleen, thymus and lymph node myeloid and B cells: Cd45.2-Pacific-Blue (104, Biolegend), Cd45.1-FITC (A20, Biolegend), Cd19-APC-CY7 (6D5, Biolegend), Mac1-APC (M1/70, Biolegend). We performed all FACS analyses on a BD Fortessa cytometer. […]

Clc1cccc(Cl)c1CSc1nnc(-c2cnccn2)s1 [Yoda1, 2-[5-[[(2,6-Dichlorophenyl)methyl]thio]-1,3,4-thiadiazol-2-yl]-pyrazine]
multi-lineage reconstitution (myeloid, T-cells, B-cells) in primary transplant: stimulates the formation of HSCs that reconstitute to the blood
multi-lineage reconstitution (myeloid, T-cells, B-cells) in primary transplant (listed as Piezo1 activator): normal multi-lineage reconstitution
peripheral blood chimerism / engraftment in primary transplant: stimulates the formation of HSCs
peripheral blood chimerism / engraftment in primary transplant (listed as Piezo1 activator): higher engraftment
multi-lineage reconstitution in secondary transplant (secondary recipients, week 12): produces HSCs that can serially reconstitute to the blood
peripheral blood chimerism in secondary transplant (secondary recipients, weeks 8-12, 2000 sorted Lin-Sca1+c-Kit+ HSPCs): produces HSCs that have serial engraftment and self-renewal capacities
amount of Lin-Sca1+c-Kit+Cd48-Cd150+ HSCs in bone marrow of primary recipients (vs. control AGM): two- to three-times higher amount
